The record followed here is US20240423979A1, “THERAPEUTICALLY EFFECTIVE COMBINATION OF A FLT3 INHIBITOR AND A BCL-2 INHIBITOR FOR THE TREATMENT OF ACUTE MYELOID LEUKEMIA” (Hanmi Pharm. Co., Ltd., priority 2021, published 2024).

Structures are written as SMILES.

Assay [1] has as its system MV-4-11 cell line with FLT3 ITD/ITD isogenic mutation. Put plainly: MV-4-11 cell line xenografted mouse model, anti-tumor efficacy. Format: in vivo, BALB/c Nude mouse. The following applies: MV-4-11 xenograft, Compound A 3 mg/kg; for Maximum inhibition (%): oral once a day for 21 days, combination 3 + 100 mg/kg, largest tumor inhibition rate during observation. The source says: In a mouse model xenografted with the cell line MV-4-11 with FLT3 ITD/ITD isogenic mutation (ATCC, CRL-9591), a comparative or combination efficacy test of the FLT3 inhibitor, 5-chloro-N-(3-cyclopropyl-5-(((3R,5S)-3,5-dimethylpiperazin-1-yl) methyl) phenyl)-4-(6-methyl-1H-indol-3-yl) pyrimidin-2-amine (hereinafter ‘Compound A’), and the Bcl-2 inhibitor, 4-[4-[[2-(4-chlorophenyl)-4,4-dimethylcyclohexen-1-yl]methyl] piperazin-1-yl]-N-[3-nitro-4-(oxan-4-ylmethylamino) phenyl] sulfonyl-2-(1H-pyrrolo [2,3-b]pyridin-5-yloxy) benzamide (hereinafter ‘venetoclax’), was conducted.
MV-4-11 cell lines were purchased from the American Type Culture Collection (ATCC). To build a mouse model xenografted with this MV-4-11 cell line, a 5-week-old male BALB/c Nude mouse (hereinafter referred to as “Nude Mouse”) was purchased from Charles River Laboratories Japan, Inc.
The MV-4-11 cell line was injected subcutaneously in a nude mouse with 5×10^6 cells/0.15 mL/mouse, and was allowed to grow. Mice with a tumor volume of 80 to 300 mm^3 (length×width^2×0.5) were selected on the day of administration, separated into 4 groups (7/group) and administered for a total of 21 days so that the average tumor volume in each group was almost the same.
The control group was administered DMSO/PEG400/DW (ratio=0.5/2/7.5, volume/volume/volume) mixed solution orally once a day, and the compound A group was administered 3 mg/kg/day once a day. It was orally administered, and the venetoclax group was orally administered once a day at a dose of 100 mg/kg/day. In the combined group, compound A was administered orally once a day at a dose of 3 mg/kg/day, and venetoclax was administered orally once a day at a dose of 100 mg/kg/day. Each group was administered individual medications for 21 days.
The maximum inhibition rate (%) and the change in weight loss (%) of mice were calculated, and the experimental results are shown in Table 1. The Inhibition rate (IR) was obtained from “(1−mean of individual relative tumor volume in the drug treatment group/average of individual relative tumor volume in the control group)×100%”, and the maximum inhibition rate was the largest inhibition rate during the observation period. The change in weight loss (%) was calculated from “(1−weight on the day of measurement/weight on the start day of administration)×100%”. The relative tumor volume was calculated from “the tumor volume/initial tumor volume×100% at the date of measurement”.

In assay [2] the test system is MOLM-13 cell line carrying the FLT3-WT/ITD heterogeneous mutation. Put plainly: MOLM-13 cell line xenografted mouse model, anti-tumor efficacy. The format is in vivo, nude mice. The settings on record: MOLM-13 xenograft, Compound A 10 mg/kg, venetoclax 100 mg/kg; for Maximum inhibition (%): oral once a day for 14 days, combination 10 + 100 mg/kg, largest tumor inhibition rate during observation. On the procedure: In a mouse model xenografted with the MOLM-13 (DSMZ no. ACC 554) cell line carrying the FLT3-WT/ITD heterogeneous mutation, a comparative or combination efficacy test of the FLT3 inhibitor, 5-chloro-N-(3-cyclopropyl-5-(((3R,5S)-3,5-dimethylpiperazine-1-yl) methyl) phenyl)-4-(6-methyl-1H-indol-3-yl) pyrimidin-2-amine (hereinafter ‘Compound A’) and the Bcl-2 inhibitor, venetoclax was conducted.
The MOLM-13 cell line was purchased from Deutsche Sammlung von Mikroorganismen und Zellkulturen (DSMZ) GmbH. To construct a mouse model xenografted with this MOLM-13 cell line, 5-week-old male nude mice were purchased from Charles River Laboratories Japan, Inc.
The MOLM-13 cell line was injected subcutaneously into nude mice at 5×10^6 cells/0.2 mL/mouse, and was allowed to grow. Mice having a tumor volume of 55 to 415 mm^3 (length×width^2×0.5) were selected on the day of administration, and after having been divided into 4 groups (3 mice each in the control group and the compound A group, 4 mice each in the venetoclax group and the compound A and venetoclax combination group) so that the average tumor volume of each group was similar, the control group was administered for 11 days, and each drug administration group received individual medications for 14 days. The control group was measured for 12 days, and each drug administration group was measured for 15 days.
The control group received an oral administration of a mixed solution of DMSO/PEG400/DW (ratio=0.5/2/7.5, volume/volume/volume) once a day, the compound A group received an oral administration once a day at a dose of 10 mg/kg/day, and the venetoclax group received an oral administration once a day at a dose of 100 mg/kg/day. […]
The maximum inhibition rate (%) and the change in weight loss (%) of mice were calculated, and the experimental results are shown in Table 2. […] The change in weight loss (%) was calculated from “(1−body weight on the measurement day/weight on the start date of administration)×100%”. Relative tumor volume was calculated from “tumor volume on measurement day/initial tumor volume×100%”.

Assay [3] has as its system relapsed or refractory AML. The experiment in a line: Open-label first-in-human dose escalation, exploration and expansion study. Format: in vivo. The settings on record: patients with relapsed or refractory AML, single agent, 80 mg dose daily oral. The source says:
This study is an open-label, first-in-human, dose escalation, exploration, and expansion study of Compound A as a single agent and in combination with venetoclax in patients with relapsed or refractory AML. Cycle 1 in dose escalation is defined as 30 days, all other cycles lasting at least 28 days. Patients will receive oral Compound A at QD on a continuous basis, with the exception of Cycle 1 Day 2 in Part A. The study treatment can continue until a discontinuation criterion is met.
The initial dose level of Compound A as a single agent was 20 mg daily and the decision to dose escalate to the next dose level is made based on the assessment of safety variables including moderate toxicity (MT, a Grade 2 AE judged by the investigator to be related to study drug (except for hematologic toxicities)) or dose limiting toxicity (DLT). This study includes 3 parts: Part A: Dose Escalation; Part B: Dose Exploration; and Part C: Dose Expansion.
Part A includes the initial dose escalation cohorts. Provisional dose escalation scheme with the planned doses of Compound A are as follows: 20 mg, 30 mg, 40 mg, 60 mg, 80 mg, 120 mg, 160 mg, 200 mg, or 240 mg. Patients are treated daily in 28-day cycles except for the Cycle 1 (30 days). The DLT observation period is during Cycle 1 starting with the first dose on Day 1. […]

`CC1(C)CCC(CN2CCN(c3ccc(C(=O)NS(=O)(=O)c4ccc(NCC5CCOCC5)c([N+](=O)[O-])c4)c(Oc4cnc5[nH]ccc5c4)c3)CC2)=C(c2ccc(Cl)cc2)C1` [Venetoclax, 4-[4-[[2-(4-chlorophenyl)-4,4-dimethylcyclohexen-1-yl]methyl]piperazin-1-yl]-N-[3-nitro-4-(oxan-4-ylmethylamino)phenyl] sulfonyl-2-(1H-pyrrolo [2,3-b]pyridin-5-yloxy) benzamide, reference compound]: the “Maximum inhibition (%)” value is listed as 76.1% in assay [1] (venetoclax 100 mg/kg) and 56.3% in assay [2].

In the case of `Cc1ccc2c(-c3nc(Nc4cc(CN5C[C@@H](C)N[C@@H](C)C5)cc(C5CC5)c4)ncc3Cl)c[nH]c2c1` [Compound A, 5-chloro-N-(3-cyclopropyl-5-(((3R,5S)-3,5-dimethylpiperazin-1-yl)methyl)phenyl)-4-(6-methyl-1H-indol-3-yl) pyrimidin-2-amine], the “complete regression (mice out of 7)” value in assay [1] (9th day of administration, venetoclax 100 mg/kg) is listed as “not observed”. Besides, the “partial regression (mice out of 7)” value in assay [1] (16th day of administration) is 1 out of 7. Also, the results for the “Maximum inhibition (%)” value in assay [1] (venetoclax 100 mg/kg) and in assay [2] were 54.0% and 68.1%, respectively. The “clinical response (complete responses)” value in assay [3] is recorded as “several complete responses”. Further, the “complete regression (mice per group)” value in assay [2] (combined group on 7th day of administration) is on record as “not observed”.
